Patent publication US10844077B2, “Thiazolyl-containing compounds for treating proliferative diseases” (Dana-Farber Cancer Institute, Inc., priority 2014, dated 2020)
Values joined by “and” are separate entries in the source; they are usually repeats but may differ in a detail not shown here. Identical values can stand only once.

Assays:
Type in all cases: cell-based
kinases in BCWM.1 cells [1] = target: kinases in BCWM.1 cells (Homo sapiens, UniProt Q04759); conditions: PKCt; ATP Loop; 1 μM, 90 min; GF
Procedure: (§1) The cells were harvested and lysed. […] Bound kinases were identified and quantitated by ACTIVX as described in Patricelli et al., Biochemistry, 2007, 46(2): 350-358. The compounds were tested in duplicates against duplicate or quadruplicate control samples.

kinases in BCWM.1 cells [2] = target: kinases in BCWM.1 cells (Homo sapiens, UniProt Q16659); conditions: Erk3; Lys2; 1 μM; GF
Procedure: as §1

kinases in BCWM.1 cells [3] = target: kinases in BCWM.1 cells (Homo sapiens, UniProt Q14164); conditions: IKKe; Lys1; 1 μM; GF
Procedure: as §1

kinases in BCWM.1 cells [4] = target: kinases in BCWM.1 cells (Homo sapiens, UniProt P06493); conditions: CDC2; Protein Kinase Domain; 1 μM; GF
Procedure: as §1

kinases in BCWM.1 cells [5] = target: kinases in BCWM.1 cells (Homo sapiens, UniProt Q96L34); conditions: MARK4; Lys2; 1 μM; GF
Procedure: as §1

kinases in BCWM.1 cells [6] = target: kinases in BCWM.1 cells (Homo sapiens, UniProt Q9Y4K4); conditions: KHS1; Lys1; 1 μM; GF
Procedure: as §1

kinases in BCWM.1 cells [7] = target: kinases in BCWM.1 cells (Homo sapiens, UniProt P07332); conditions: FES; Lys1; 1 μM; GF
Procedure: as §1

kinases in BCWM.1 cells [8] = target: kinases in BCWM.1 cells (Homo sapiens, UniProt Q9NRM7); conditions: LATS2; Lys2; 1 μM; GF
Procedure: as §1

kinases in BCWM.1 cells [9] = target: kinases in BCWM.1 cells (Homo sapiens, UniProt P78368); conditions: CK1g2; Lys2; 1 μM; GF
Procedure: as §1

kinases in BCWM.1 cells [10] = target: kinases in BCWM.1 cells (Homo sapiens, UniProt O00506); conditions: YSK1; Lys1; 1 μM, 90 min; GF
Procedure: as §1

kinases in BCWM.1 cells [11] = target: kinases in BCWM.1 cells (Homo sapiens, UniProt Q8NB16); conditions: MLKL; Lys1; 1 μM; GF
Procedure: as §1

kinases in BCWM.1 cells [12] = target: kinases in BCWM.1 cells (Homo sapiens, UniProt Q9NWZ3); conditions: IRAK4; Lys2; 1 μM; GF
Procedure: as §1

kinases in BCWM.1 cells [13] = target: kinases in BCWM.1 cells (Homo sapiens, UniProt Q8IU85); conditions: CaMKld; Lys1; 1 μM; GF
Procedure: as §1

kinases in BCWM.1 cells [14] = target: kinases in BCWM.1 cells (Homo sapiens, UniProt P80192); conditions: MLK1; Lys2; 1 μM; GF
Procedure: as §1

kinases in BCWM.1 cells [15] = target: kinases in BCWM.1 cells (Homo sapiens, UniProt Q00534); conditions: CDK6; Lys2; 1 μM; GF
Procedure: as §1

kinases in BCWM.1 cells [16] = target: kinases in BCWM.1 cells (Homo sapiens, UniProt P24941); conditions: CDK2; Lys2; 1 μM; GF
Procedure: as §1

kinases in BCWM.1 cells [17] = target: kinases in BCWM.1 cells (Homo sapiens, UniProt Q9UK32); conditions: RSK4 domain1; Lys2; 1 μM, 90 min; GF
Procedure: as §1

kinases in BCWM.1 cells [18] = target: kinases in BCWM.1 cells (Homo sapiens, UniProt Q8TCG2); conditions: PI4K2B; ATP; 1 μM, 90 min; GF
Procedure: as §1

kinases in BCWM.1 cells [19] = target: kinases in BCWM.1 cells (Homo sapiens, UniProt P06241); conditions: FYN; Lys1; 1 μM; GF
Sequence of kinases in BCWM.1 cells (Homo sapiens, UniProt P06241) (P06241 2-537 limits assumed): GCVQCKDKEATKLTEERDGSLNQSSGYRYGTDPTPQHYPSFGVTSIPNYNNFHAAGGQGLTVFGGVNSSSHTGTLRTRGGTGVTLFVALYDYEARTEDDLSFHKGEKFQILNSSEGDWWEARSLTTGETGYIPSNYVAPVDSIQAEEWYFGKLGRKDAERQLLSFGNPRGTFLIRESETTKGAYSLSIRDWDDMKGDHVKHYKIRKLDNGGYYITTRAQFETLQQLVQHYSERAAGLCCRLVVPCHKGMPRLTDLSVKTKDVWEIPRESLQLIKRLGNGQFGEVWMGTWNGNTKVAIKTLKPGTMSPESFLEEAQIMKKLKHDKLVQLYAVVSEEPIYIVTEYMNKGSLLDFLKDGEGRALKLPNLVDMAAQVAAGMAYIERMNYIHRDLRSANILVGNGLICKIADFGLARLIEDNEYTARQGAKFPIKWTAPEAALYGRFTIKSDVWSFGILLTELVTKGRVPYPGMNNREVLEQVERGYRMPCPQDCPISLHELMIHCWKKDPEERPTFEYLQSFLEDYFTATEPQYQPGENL
Procedure: as §1

kinases in BCWM.1 cells [20] = target: kinases in BCWM.1 cells (Homo sapiens, UniProt Q06187); conditions: BTK; Activation Loop; 1 μM; GF
Sequence of kinases in BCWM.1 cells (Homo sapiens, UniProt Q06187) (Q06187 2-659 limits assumed): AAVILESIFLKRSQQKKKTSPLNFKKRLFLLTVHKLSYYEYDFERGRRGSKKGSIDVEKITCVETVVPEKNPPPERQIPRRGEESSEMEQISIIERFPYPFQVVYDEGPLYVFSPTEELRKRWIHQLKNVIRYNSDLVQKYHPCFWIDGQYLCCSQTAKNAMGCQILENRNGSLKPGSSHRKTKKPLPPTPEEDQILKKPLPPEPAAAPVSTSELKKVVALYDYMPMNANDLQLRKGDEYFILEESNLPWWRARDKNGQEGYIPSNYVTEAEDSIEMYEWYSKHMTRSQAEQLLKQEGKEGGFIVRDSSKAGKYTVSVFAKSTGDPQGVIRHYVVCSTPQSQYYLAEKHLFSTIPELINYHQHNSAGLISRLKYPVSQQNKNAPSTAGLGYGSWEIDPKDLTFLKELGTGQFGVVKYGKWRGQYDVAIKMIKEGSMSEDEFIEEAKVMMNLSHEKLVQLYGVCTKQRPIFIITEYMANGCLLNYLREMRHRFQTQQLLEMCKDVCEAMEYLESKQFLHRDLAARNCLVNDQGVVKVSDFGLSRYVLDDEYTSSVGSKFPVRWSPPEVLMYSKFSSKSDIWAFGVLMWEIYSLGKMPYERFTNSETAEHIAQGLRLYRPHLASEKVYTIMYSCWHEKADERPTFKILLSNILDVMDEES
Procedure: as §1

kinases in BCWM.1 cells [21] = target: kinases in BCWM.1 cells (Homo sapiens, UniProt P09769); conditions: FGR; Activation Loop; 1 μM; GF
Sequence of kinases in BCWM.1 cells (Homo sapiens, UniProt P09769) (P09769 2-529 limits assumed): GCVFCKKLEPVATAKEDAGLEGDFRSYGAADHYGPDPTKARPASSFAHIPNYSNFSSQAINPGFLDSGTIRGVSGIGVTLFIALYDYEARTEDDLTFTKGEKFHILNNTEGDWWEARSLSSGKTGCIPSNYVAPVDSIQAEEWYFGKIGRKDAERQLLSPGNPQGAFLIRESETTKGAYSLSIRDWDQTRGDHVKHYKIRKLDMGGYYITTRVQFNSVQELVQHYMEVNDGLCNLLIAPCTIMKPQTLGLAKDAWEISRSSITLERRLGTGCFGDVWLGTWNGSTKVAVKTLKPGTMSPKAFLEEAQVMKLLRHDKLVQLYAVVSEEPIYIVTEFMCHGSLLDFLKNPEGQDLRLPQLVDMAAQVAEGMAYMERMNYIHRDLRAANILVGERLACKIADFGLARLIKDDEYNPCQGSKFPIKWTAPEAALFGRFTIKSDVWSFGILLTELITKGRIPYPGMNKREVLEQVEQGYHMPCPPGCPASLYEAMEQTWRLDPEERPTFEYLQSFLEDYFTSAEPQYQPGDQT
Procedure: as §1

kinases in BCWM.1 cells [22] = target: kinases in BCWM.1 cells (Homo sapiens, UniProt Q00536)
Procedure: as §1

kinases in BCWM.1 cells [23] = target: kinases in BCWM.1 cells (Homo sapiens, UniProt Q9Y616); conditions: IRAK3; Lys1; 1 μM; GF
Procedure: as §1

kinases in BCWM.1 cells [24] = target: kinases in BCWM.1 cells (Homo sapiens, UniProt O14920); conditions: IKKb; Lys2; 1 μM; GF
Procedure: as §1

kinases in BCWM.1 cells [25] = target: kinases in BCWM.1 cells (Homo sapiens, UniProt Q86XP1); conditions: DGKH; ATP; 1 μM; GF
Procedure: as §1

kinases in BCWM.1 cells [26] = target: kinases in BCWM.1 cells (Homo sapiens, UniProt Q14680); conditions: MELK; Lys2; 1 μM; GF
Procedure: as §1

kinases in BCWM.1 cells [27] = target: kinases in BCWM.1 cells (Homo sapiens, UniProt Q86UX6); conditions: YANK3; Lys2; 1 μM, 90 min; GF
Procedure: as §1

kinases in BCWM.1 cells [28] = target: kinases in BCWM.1 cells (Homo sapiens, UniProt Q13557); conditions: CaMK2d; Lys1; 1 μM; GF
Sequence of kinases in BCWM.1 cells (Homo sapiens, UniProt Q13557) (Q13557 2-499 limits assumed): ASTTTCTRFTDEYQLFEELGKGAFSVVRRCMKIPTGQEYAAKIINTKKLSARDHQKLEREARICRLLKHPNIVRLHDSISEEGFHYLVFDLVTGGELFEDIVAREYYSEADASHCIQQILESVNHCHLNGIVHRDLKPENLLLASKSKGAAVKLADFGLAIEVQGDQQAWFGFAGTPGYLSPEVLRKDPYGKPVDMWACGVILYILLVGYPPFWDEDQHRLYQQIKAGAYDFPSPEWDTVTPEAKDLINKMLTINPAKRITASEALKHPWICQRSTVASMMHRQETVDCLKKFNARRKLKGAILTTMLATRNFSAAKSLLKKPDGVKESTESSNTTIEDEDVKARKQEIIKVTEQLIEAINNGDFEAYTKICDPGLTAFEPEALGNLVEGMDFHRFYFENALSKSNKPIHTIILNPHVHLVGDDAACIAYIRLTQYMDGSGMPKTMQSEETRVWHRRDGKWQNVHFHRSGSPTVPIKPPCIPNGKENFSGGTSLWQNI
Procedure: as §1

kinases in BCWM.1 cells [29] = target: kinases in BCWM.1 cells (Homo sapiens, UniProt Q16584); conditions: MLK3; Lys2; 1 μM; GF
Procedure: as §1

kinases in BCWM.1 cells [30] = target: kinases in BCWM.1 cells (Homo sapiens, UniProt Q96GD4); conditions: AurB; Lys1; 1 μM; GF
Procedure: as §1

kinases in BCWM.1 cells [31] = target: kinases in BCWM.1 cells (Homo sapiens, UniProt Q14004)
Procedure: as §1

C=CC(=O)N1CC[C@H](Nc2nccc(Nc3ncc(C(=O)Nc4c(C)cccc4C)s3)n2)C1 [Example I-3]
% change of MS signal compared to control sample (kinases in BCWM.1 cells [1]): 23.5%

CCC(=O)N1CC[C@H](Nc2nccc(Nc3ncc(C(=O)Nc4c(C)cccc4C)s3)n2)C1 [Example I-9]
% change of MS signal compared to control sample (kinases in BCWM.1 cells [2]): 16.9% and 25.3%
% change of MS signal compared to control sample (kinases in BCWM.1 cells [3]): −12.6% and −6.1%
% change of MS signal compared to control sample (kinases in BCWM.1 cells [4]): −2.6% and −3.2%
% change of MS signal compared to control sample (kinases in BCWM.1 cells [5]): −12.2% and −10.2%
% change of MS signal compared to control sample (kinases in BCWM.1 cells [6]): −7.5% and −8.7%
% change of MS signal compared to control sample (kinases in BCWM.1 cells [7]): −11.2% and −3.9%
% change of MS signal compared to control sample (kinases in BCWM.1 cells [8]): −12.3% and −5.1%
% change of MS signal compared to control sample (kinases in BCWM.1 cells [9]): −8.9% and −10.9%
% change of MS signal compared to control sample (kinases in BCWM.1 cells [10]): −20.8%
% change of MS signal compared to control sample (kinases in BCWM.1 cells [11]): −4.7% and −3.9%
% change of MS signal compared to control sample (kinases in BCWM.1 cells [12]): −3.2% and 6.2%
% change of MS signal compared to control sample (kinases in BCWM.1 cells [13]): −7.5% and −4.6%
% change of MS signal compared to control sample (kinases in BCWM.1 cells [14]): 1% and 9%
% change of MS signal compared to control sample (kinases in BCWM.1 cells [15]): 2.7% and 3.5%
% change of MS signal compared to control sample (kinases in BCWM.1 cells [16]): −8.7% and −4.3%
% change of MS signal compared to control sample (kinases in BCWM.1 cells [17]): 15.8%
% change of MS signal compared to control sample (kinases in BCWM.1 cells [18]): 6.5%
% change of MS signal compared to control sample (kinases in BCWM.1 cells [19]): >91%
% change of MS signal compared to control sample (kinases in BCWM.1 cells [20]): 96.7% and 70.7%
% change of MS signal compared to control sample (kinases in BCWM.1 cells [21]): 84.7% and 72.1%
% change of MS signal compared to control sample (kinases in BCWM.1 cells [22]): 6.5%
% change of MS signal compared to control sample (kinases in BCWM.1 cells [23]): 7.2% and −1.4%
% change of MS signal compared to control sample (kinases in BCWM.1 cells [24]): 0.4% and −1.4%
% change of MS signal compared to control sample (kinases in BCWM.1 cells [25]): −21.2% and −12.5%
% change of MS signal compared to control sample (kinases in BCWM.1 cells [26]): −9.6% and −9.5%
% change of MS signal compared to control sample (kinases in BCWM.1 cells [27]): −13.2%
% change of MS signal compared to control sample (kinases in BCWM.1 cells [28]): −8.1% and −8.2%
% change of MS signal compared to control sample (kinases in BCWM.1 cells [29]): 24.1%
% change of MS signal compared to control sample (kinases in BCWM.1 cells [30]): −20.6% and −21.5%
% change of MS signal compared to control sample (kinases in BCWM.1 cells [31]): 5.7% and 15.3%
